The target of assay [1] is T1, human recombinant L1196M ALK kinase domain (amino acids 1093-1411) (Homo sapiens, UniProt Q9UM73, L1196M).
T1 construct: ALK kinase domain (amino acids 1093-1411); made in house
As to the kind of experiment: L1196M mutant ALK enzyme assay (microfluidic mobility shift). To be noted: ATP 60 μM, 0.5 nM enzyme, competitive inhibition fit; read-out: L1196M ALK enzyme assay (Ki). It counts as biochemical.

Assay [2] deals with T2, human recombinant wild-type ALK kinase domain (amino acids 1093-1411) (Homo sapiens, UniProt Q9UM73).
T2 construct: ALK kinase domain (amino acids 1093-1411); made in house
Nature of the assay: Wild-type ALK enzyme assay (microfluidic mobility shift). It counts as biochemical. The settings on record: ATP 60 μM, competitive inhibition fit, read-out: WT ALK enzyme assay (Ki).
Experimental: The reactions were incubated for 1 h at room temperature, stopped by the addition of 0.1 M EDTA, pH 8, and the extent of reactions (˜15-20% conversion with no inhibitor) was determined after electrophoretic separation of the fluorescently labeled peptide substrate and phosphorylated product on an LabChip EZ Reader II (Caliper Life Sciences, Hopkinton, Mass.).

In assay [3] the target is T3, L1196M EML4-ALK (NIH-3T3 EML4-ALK v1 L1196M cells) (Homo sapiens, UniProt Q9UM73, L1196M).
T3 construct: expressed in transfected cells; the other entry of the earlier key: EML4 (Q9HC35, Echinoderm microtubule-associated protein-like 4)
Nature of the assay: Cellular phospho-ALK (Tyr1604) ELISA assay for L1196M EML4-ALK. The settings on record: NIH-3T3 EML4-ALK v1 L1196M cells, 1 hour, phospho-ALK (Tyr1604); read-out: ELISA assay for L1196M EML4-ALK (IC50). It counts as cell-based. In general terms: ELISA stands for enzyme-linked immunosorbent assay.
Experimental: (§1) Cellular Phospho-ALK (Tyr1604) ELISA Assay for EML4-ALK:
(§2) The cells were maintained at 37° C. in a 5% CO2 incubator in DMEM (Invitrogen, Carlsbad, Calif.) medium supplemented with 1% L-glutamine, 1% penicillin and streptomycin, 1 ug/ml puromycin and 10% new born calf serum (NCS) in T-75 flasks.
(§3) Cells were washed with PBS and re-suspended in DMEM medium supplemented with 0.5% NCS and 1% pen/strep and seeded into 96-well plates at density of 20,000 cells/well/100 μl and incubated in the incubator at 37° C. and 5% CO2. After 20 hours of incubation, 100 μl of assay media (DMEM) in presence of designated PF-compounds concentrations or controls (DMSO) were added into plates and incubated for 1 hour in the incubator. Media was then removed and lysis buffer, containing phosphatase inhibitors and phenylmethanesulfonyl fluoride (PMSF), was added to wells and shaken at 4° C. for 30 minutes to generate protein lysates.
(§4) A phospho-ALK (Tyr1604) rabbit antibody was coated onto the 96-well microplates. 50 μl of cell lysates were added to the antibody coated plate and incubated at room temperature for 2 hours. Following extensive washing with 0.1% Tween 20 in PBS to remove unbound materials, ALK mouse mAb was added to detect captured phospho-ALK (Tyr1604) and phospho-ALK fusion proteins. Anti-mouse IgG, HRP-linked antibody was then used to recognize the bound detection antibody. Finally, the chemiluminescent reagent was added and incubated for 10 minutes for signal development. The assay plates were read in the Envision plate reader in the luminescent mode. IC50 values were calculated by a concentration-response curve fitting using a four-parameter analytic method.

Assay [4] concerns the target T4, WT EML4-ALK (NIH-3T3 EML4-ALK wt v1 cells) (Homo sapiens, UniProt Q9UM73).
T4 construct: expressed in transfected cells; the other entry of the earlier key: EML4 (Q9HC35, Echinoderm microtubule-associated protein-like 4)
Nature of the assay: Cellular phospho-ALK (Tyr1604) ELISA assay for WT EML4-ALK. It counts as cell-based. To be noted: 1 hour, read-out: ELISA assay for WT EML4-ALK (IC50).
Experimental: as §1, §2, §3, §4

Here are results for 20 molecules from patent US8680111B2 (Pfizer Inc., priority 2012, dated 2014).

Usually Ki stands for the dissociation constant of the complex between target and ligand, obtained from inhibition or displacement. For orientation: IC50 means the point on the concentration scale where inhibition reaches its midpoint.

Take `C[C@H]1Oc2cc(cnc2N)-c2c(nn(C)c2C#N)CNC(=O)c2ccc(F)cc21` [Example 132, (10R)-7-amino-12-fluoro-2,10-dimethyl-15-oxo-10,15,16,17-tetrahydro-2H-8,4-(metheno)pyrazolo[4,3-h][2,5,11]benzoxadiazacyclotetradecine-3-carbonitrile]: the Ki came out at 16.5 nM in assay [1] and 3.32 nM in assay [2]. Further, the IC50 in assay [3] amounted to 892 nM; in assay [4] it was 35.3 nM.

Consider `CC1Oc2nc(cnc2N)-c2c(C#N)nn3c2C(CC3)N(C)C(=O)c2ccc(F)cc21` [Example 74, (9R)-6-amino-11-fluoro-9,15-dimethyl-14-oxo-9,14,15,15a,16,17-hexahydro-7,3-(azeno)-8-oxa-1,5,15,17a-tetraazabenzo[11,12]cyclotetradeca[1,2,3-cd]pentalene-2-carbonitrile], for which the figures for the Ki in assay [1] and in assay [2] were 0.86 nM and 0.3 nM, respectively. Also, the IC50 was determined as 51.9 nM in assay [3] and 11.4 nM in assay [4].

Consider `CC1Oc2nc(cnc2N)-c2c(nn(C)c2C#N)Cn2ccnc2-c2ccc(F)cc21` (single isomer, unassigned) [Example 108, 8-amino-3-fluoro-5,13-dimethyl-13,15-dihydro-5H-7,11-(azeno)imidazo[1,2-k]pyrazolo[4,3-h][2,5,11]benzoxadiazacyclotetradecine-12-carbonitrile], for which the Ki in assay [1] is < 0.05 nM; in assay [2], < 0.06 nM. Also, the IC50 in assay [3] came out at 0.5 nM; in assay [4], 0.068 nM.

With `CC1Oc2cc(cnc2N)-c2c(nn(C)c2C#N)COCc2ccc(F)cc21` (centres unmarked) [Example 119], the Ki in assay [1] worked out at 13.4 nM; in assay [2], 1.6 nM. Further, the IC50 was found to be 264 nM in assay [3] and 7.79 nM in assay [4].

Regarding `CN1Cc2c(c(C#N)nn2C)-c2cnc(N)c(n2)OC(CF)c2ccccc2C1=O` (single isomer, unassigned) [Example 127], the Ki in assay [1] was 0.52 nM; in assay [2], 0.099 nM. Moreover, the IC50 in assay [3] stood at 65 nM; in assay [4] it was 2.5 nM.

With `CN1Cc2nn(C)c(C#N)c2-c2cnc(N)c(n2)OCc2cc(F)ccc2C1=O` [Example 46, 7-amino-12-fluoro-2,16-dimethyl-15-oxo-10,15,16,17-tetrahydro-2H-8,4-(azeno)pyrazolo[4,3-h][2,5,11]benzoxadiazacyclotetradecine-3-carbonitrile], the results for the Ki in assay [1] and in assay [2] were 1.1 nM and 0.15 nM, respectively. Moreover, the values for the IC50 in assay [3] and in assay [4] were 44.7 nM and 10.4 nM, respectively.

Regarding `COc1snc2c1-c1cnc(N)c(c1)O[C@H](C)c1cc(F)ccc1C(=O)N(C)C2` [Example 3, (10R)-7-amino-12-fluoro-3-methoxy-10,16-dimethyl-16,17-dihydro-8,4-(metheno)isothiazolo[4,3-h][2,5,11]benzoxadiazacyclotetradecin-15(10H)-one], the Ki in assay [1] was 0.2 nM; in assay [2], < 0.2 nM. The IC50 in assay [3] was 22.2 nM; in assay [4], 0.99 nM.

In the case of `C[C@H]1Oc2cc(cnc2N)-c2c(C#N)noc2CN(C)C(=O)c2ccc(F)cc21` [Example 117, (10R)-7-amino-12-fluoro-10,16-dimethyl-15-oxo-10,15,16,17-tetrahydro-8,4-(metheno)[1,2]oxazolo[4,5-h][2,5,11]benzoxadiazacyclotetradecine-3-carbonitrile], the Ki in assay [1] came to 17.8 nM; in assay [2], 2.18 nM. Also, the IC50 is 393 nM in assay [3] and 35.2 nM in assay [4].

Take `COc1nn(C)c2c1-c1cnc(N)c(c1)OC(C)c1cccnc1C(=O)N(C)C2` (single isomer, unassigned) [Example 65, 7-amino-3-methoxy-1,10,16-trimethyl-16,17-dihydro-1H-8,4-(metheno)-pyrazolo[4,3-g]pyrido[2,3-l][1,4,10]oxadiazacyclotetradecin-15(10H)-one]: the Ki worked out at 9.8 nM in assay [1] and 0.88 nM in assay [2]. For the same molecule, the IC50 came to 313 nM in assay [3] and 9.36 nM in assay [4].

In the case of `COc1noc2c1-c1cnc(N)c(c1)O[C@H](C)c1cc(F)ccc1C(=O)N(C)C2` [Example 111, (10R)-7-amino-12-fluoro-3-methoxy-10,16-dimethyl-16,17-dihydro-8,4-(metheno)[1,2]oxazolo[4,5-h][2,5,11]benzoxadiazacyclotetradecin-15(10H)-one], the Ki was 0.54 nM in assay [1] and 0.059 nM in assay [2]. Also, the IC50 in assay [3] stood at 32.5 nM; in assay [4] it was 1.42 nM.

Take `CN1Cc2ccc(S(C)(=O)=O)cc2-c2cnc(N)c(c2)OCc2cc(F)ccc2C1=O` [Example 5, 8-amino-3-fluoro-17-methyl-13-(methylsulfonyl)-16,17-dihydro-7,11-(metheno)dibenzo[g,l][1,4,10]oxadiazacyclotetradecin-18(5H)-one]: the results for the Ki in assay [1] and in assay [2] were 3.4 nM and 0.34 nM, respectively. The IC50 turned out to be 156 nM in assay [3] and 12.1 nM in assay [4].

Turning to “7-amino-12-fluoro-3-methoxy-1,16,17-trimethyl-16,17-dihydro-1H-8,4-(azeno)pyrazolo[4,3-h][2,5,11]benzoxadiazacyclotetradecin-15(10H)-one [Example 125]”, the Ki was 0.49 nM in assay [1] and 0.11 nM in assay [2]. Also, the IC50 in assay [3] is 49.1 nM; in assay [4], 2.3 nM.

As to `COc1nccc2c1-c1cnc(N)c(c1)O[C@H](C)c1cc(F)ccc1C(=O)N(C)C2` [Example 34, (11R)-8-amino-13-fluoro-4-methoxy-11,17-dimethyl-17,18-dihydro-9,5-(metheno)pyrido[3,4-h][2,5,11]benzoxadiazacyclotetradecin-16(11H)-one], the results for the Ki in assay [1] and in assay [2] were 15 nM and 0.56 nM, respectively. The results for the IC50 in assay [3] and in assay [4] were 890 nM and 36.1 nM, respectively.

In the case of `CC1Oc2cc(cnc2N)-c2c(nn(C)c2C#N)CN(C)C(=O)c2c(F)cccc21` (single isomer, unassigned) [Example 52, 7-amino-14-fluoro-2,10,16-trimethyl-15-oxo-10,15,16,17-tetrahydro-2H-8,4-(metheno)pyrazolo[4,3-h][2,5,11]benzoxadiazacyclotetradecine-3-carbonitrile], the Ki came out at 10.2 nM in assay [1] and 1.2 nM in assay [2]. Also, the IC50 in assay [3] was determined as 296 nM; in assay [4] it was 4.78 nM.

In the case of `Cc1nn(C)c2c1-c1cnc(N)c(c1)OC(C)c1cc(F)ccc1C(=O)N(C1CC1)C2` (single isomer, unassigned) [Example 12, 7-amino-16-cyclopropyl-12-fluoro-1,3,10-trimethyl-16,17-dihydro-1H-8,4-(metheno)pyrazolo[4,3-h][2,5,11]benzoxadiazacyclotetradecin-15(10H)-one], the Ki in assay [1] turned out to be 29 nM; in assay [2] it was 10 nM. For the same molecule, the IC50 in assay [3] was found to be 700 nM; in assay [4] it was 34.9 nM.

Turning to `COc1nn(C)c2c1-c1cnc(N)c(n1)OCc1cc(F)ccc1C(=O)N(C)C2C` (single isomer, unassigned) [Example 122, 7-amino-12-fluoro-3-methoxy-1,16,17-trimethyl-16,17-dihydro-1H-8,4-(azeno)pyrazolo[4,3-h][2,5,11]benzoxadiazacyclotetradecin-15(10H)-one], the Ki came out at 0.7 nM in assay [1] and 0.27 nM in assay [2]. Besides, the IC50 in assay [3] worked out at 52.3 nM; in assay [4], 9.27 nM.

Consider `CC1Oc2nc(cnc2N)-c2c(nn(C)c2C#N)COCc2ccc(F)cc21` (single isomer, unassigned) [Example 105, 7-amino-12-fluoro-2,10-dimethyl-2,10,15,17-tetrahydro-8,4-(azeno)pyrazolo[4,3-h][2,11,5]benzodioxazacyclotetradecine-3-carbonitrile], for which the Ki in assay [1] was 16.7 nM; in assay [2], 3 nM. For the same molecule, the concentration for half-maximal inhibition (IC50) in assay [3] turned out to be 642 nM; in assay [4] it was 115 nM.

As for `C[C@H]1Oc2cc(cnc2N)-c2c(nnn2C2CCC2)CN(C)C(=O)c2ccc(F)cc21` [Example 136, (10R)-7-amino-3-cyclobutyl-12-fluoro-10,16-dimethyl-16,17-dihydro-3H-8,4-(metheno)[1,2,3]triazolo[4,5-h][2,5,11]benzoxadiazacyclotetradecin-15(10H)-one], the Ki came out at 4.8 nM in assay [1] and 0.6 nM in assay [2]. The IC50 in assay [3] is 419 nM; in assay [4], 28.5 nM.

As to `CCn1ncc2c1-c1cnc(N)c(n1)O[C@H](C)c1cc(F)ccc1C(=O)N(C)C2` [Example 49, (10R)-7-amino-3-ethyl-12-fluoro-10,16-dimethyl-16,17-dihydro-3H-8,4-(azeno)pyrazolo[3,4-h][2,5,11]benzoxadiazacyclotetradecin-15(10H)-one], the values for the Ki in assay [1] and in assay [2] were 1.5 nM and 0.17 nM, respectively. Moreover, the figures for the IC50 in assay [3] and in assay [4] were 80.8 nM and 4.08 nM, respectively.

Turning to “12-fluoro-1,14-dimethyl-1,4,5,6,7,8-hexahydro-14H-16,20-(metheno)-pyrazolo[4,3-g][1,14,11]benzodioxazacycloheptadecin-17-amine [Example 95]”, the Ki in assay [1] was determined as 1.9 nM; in assay [2], 0.35 nM. Also, the results for the IC50 in assay [3] and in assay [4] were 169 nM and 10.4 nM, respectively.
